Holding throughout (assay type): cell-based
Experiment [1] deals with clinically isolated coliform bacterium. As to the kind of experiment: Example 5: in vitro M.I.C. of IV, various penicillins and 1:1 combinations. As for the experimental part:
(§1) Tryptose phosphate broth, containing the appropriate concentrations of the compounds or of the combination of them, was inoculated with 0.5×10^4 -5×10^4 organisms of the various microorganisms tested and incubated overnight at 37° C. Minimum inhibitory concentrations (M.I.C.) were taken as the concentrations of the compounds or of the combination at which no visible growth occurred.
Using the same technique as described in Example 1 the in vitro activity of 6[(piperidyl-1)-methyleneamino]-penicillianic acid (IV), of various penicillins, and of 1:1 combinations of IV with these penicillins, was determined against a clinically isolated coliform bacterium.

Experiment [2] concerns Klebsiella-Enterobacter (strain 4/71). As to the kind of experiment: Example 10: in vitro M.I.C. of II, cephalosporins and 1:1 combinations. The procedure: as §1
Using the same technique as described in Example 1 the in vitro activity of 6-[(hexahydro-1H-azepin-1-yl)methyleneamino]penicillanic acid (II), of various cephalosporins previously mentioned in this specification, and of 1:1 combinations of II with these cephalosporins was determined against a clinically isolated strain of Klebsiella-Enterobacter (strain 4/71)

Experiment [3] concerns Proteus (Proteus Mirabilis I 190). As to the kind of experiment: Example 11: in vitro M.I.C. of II, cephalosporins and 1:1 combinations. The procedure:
as §1
Using the same technique as described in Example 1 the in vitro activity of 6-[(hexahydro-1H-azepin-1-yl)methyleneamino]penicillanic acid (II), of various cephalosporins and of 1:1 combinations of II with these cephalosporins was determined against a clinically isolated strain of Proteus (Proteus Mirabilis I 190).

Where [4] appears, read: Klebsiella-Enterobacter strain 4/71, read-out: M.I.C.
[5] abbreviates: Proteus Mirabilis I 190, read-out: M.I.C.

Twelve molecules from patent US4221781A, “Synergistic penicillin-cephalosporin compositions and methods” (priority 1971, dated 1980) can be followed below.

Where two headings read alike, the source gives them in different places.

Turning to `CC1(C)S[C@@H]2[C@H](NC(=O)[C@H](N=[N+]=[N-])c3ccccc3)C(=O)N2[C@H]1C(=O)O` [6-(D-α-azidophenylacetamido)penicillanic acid], the MIC in experiment [1] amounted to 50 µg/mL.

As to `CC(=O)OCC1=C(C(=O)O)N2C(=O)[C@@H](NC(=O)CC#N)[C@H]2SC1` [Cephacetrile], the results for the MIC in experiment [2] (setting [4]) and in experiment [3] (setting [5]) were 50 µg/mL and 12.5 µg/mL, respectively.

As for `CC1=C(C(=O)O)N2C(=O)[C@@H](NC(=O)[C@H](N)c3ccccc3)[C@H]2SC1` [Cephalexine], the MIC turned out to be 50 µg/mL in experiment [2] (setting [4]) and 25 µg/mL in experiment [3] (setting [5]).

Consider `O=C(Cc1cccs1)N[C@@H]1C(=O)N2C(C(=O)[O-])=C(C[n+]3ccccc3)CS[C@H]12` [Cephaloridine], for which the MIC in experiment [2] (setting [4]) was found to be 25 µg/mL; in experiment [3] (setting [5]), 6.25 µg/mL.

Take `Cc1nnc(SCC2=C(C(=O)O)N3C(=O)[C@@H](NC(=O)Cn4cnnn4)[C@H]3SC2)s1` [Cephazoline]: the results for the MIC in experiment [2] (setting [4]) and in experiment [3] (setting [5]) were 12.5 µg/mL and 6.25 µg/mL, respectively.

Regarding `CC(=O)OCC1=C(C(=O)O)N2C(=O)C(NC(=O)Cc3ccccc3)C2SC1` (stereo not drawn) [EPC 807 2/b], the figures for the MIC in experiment [2] (setting [4]) and in experiment [3] (setting [5]) were more than 100 µg/mL and 25 µg/mL, respectively.

Turning to `CC(=O)OCC1=C(C(=O)O)N2C(=O)C(NC(=O)Cc3cccc(Cl)c3)C2SC1` (stereo not drawn) [EPC 820/1b], the MIC in experiment [2] (setting [4]) is more than 100 µg/mL; in experiment [3] (setting [5]) it was 50 µg/mL.

For the molecule `[N-]=[N+]=NCC1=C(C(=O)O)N2C(=O)C(NC(=O)Cc3cccs3)C2SC1` (stereo not drawn) [EPC 821/4II], the MIC in experiment [2] (setting [4]) was 100 µg/mL; in experiment [3] (setting [5]), 12.5 µg/mL.

For the molecule `CC(=O)OCC1=C(C(=O)O)N2C(=O)C(NC(=O)CSc3ccccc3)C2SC1` (stereo not drawn) [EPC 825/1], the MIC in experiment [2] (setting [4]) was more than 100 µg/mL; in experiment [3] (setting [5]) it was 25 µg/mL.

For `CC(=O)OCC1=C(C(=O)O)N2C(=O)[C@@H](NC(=O)Cc3cccs3)[C@H]2SC1` [VI, cephalotin], the MIC in experiment [2] was found to be 50 µg/mL; in experiment [3], 3.12 µg/mL.

Consider `CC1(C)S[C@@H]2[C@H](NC(=O)Cc3ccccc3)C(=O)N2[C@H]1C(=O)O` [benzylpenicillin], for which, in experiment [1], the MIC is 25 µg/mL.

With `CC1(C)S[C@@H]2[C@H](NC(=O)C(C(=O)O)c3ccccc3)C(=O)N2[C@H]1C(=O)O` (stereo partly drawn) [α-carboxybenzylpenicillin], the MIC in experiment [1] came out at 12.5 µg/mL.
